# Data published in patent publication US7186831B2, “5-halo-2-alkyl[1,2,4]triazolo[1,5-a]pyrimidin-7-amines” (priority 2001, dated 2007).
# Experiment: log P by HPLC
# Type: physicochemical
# Conditions: EEC directive 79/831 Annex V. A8 by HPLC (gradient method, acetonitrile/0.1% aqueous phosphoric acid)
row,logP,Structure (SMILES)
1,3.75,CC(Nc1c(-c2ccc(F)cc2Cl)c(Cl)nc2nc(C3CC3)nn12)C(F)(F)F (racemic) [compound 505]
2,2.95,"Cc1nc2nc(Cl)c(-c3ccc(F)cc3F)c(NC(C)C(F)(F)F)n2n1 (single isomer, unassigned) [compound 359]"
3,2.96,"Cc1nc2nc(Cl)c(-c3ccc(F)cc3F)c(NC(C)C(F)(F)F)n2n1 (single isomer, unassigned) [compound 360]"
4,3.51,"C[C@H](Nc1c(-c2ccc(F)cc2F)c(Cl)nc2nc(C3CC3)nn12)C(F)(F)F (single isomer, unassigned) [compound 489]"
5,3.52,"C[C@H](Nc1c(-c2ccc(F)cc2F)c(Cl)nc2nc(C3CC3)nn12)C(F)(F)F (single isomer, unassigned) [compound 490]"

# Same assay, conditions: HPLC
row,chromatographic logP,Structure (SMILES)
1,4.43,Fc1cc(F)c(-c2c(Cl)nc3nc(C(F)(F)F)nn3c2N2CCC(C(F)(F)F)CC2)c(F)c1 [Example 1]
2,3.71,"Fc1cc(F)c(-c2c(Cl)nc3nc(C(F)(F)F)nn3c2Cl)c(F)c1 [Example 819, 5,7-dichloro-2-(trifluoromethyl)-6-(2,4,6-trifluorophenyl)[1,2,4]triazolo[1,5-a]pyrimidine]"
3,0.81,"Oc1nc2nc(C(F)(F)F)nn2c(O)c1-c1c(F)cc(F)cc1F [Example 832, 2-trifluoromethyl-6-(2,4,6-trifluoro-phenyl)-[1,2,4]triazolo[1,5-a]pyrimidine-5,7-diol]"

# Same assay, conditions: HPLC, gradient method, acetonitrile/0.1% aqueous phosphoric acid; EEC directive 79/831 Annex V. A8
row,Structure (SMILES),logP
1,CCc1nc2nc(Cl)c(-c3c(F)cc(F)cc3F)c(N3CCC(C(F)(F)F)CC3)n2n1 [compound 2],3.99
2,CCc1nc2nc(Cl)c(-c3c(F)cc(F)cc3F)c(NCC(F)(F)F)n2n1 [compound 5],3.06
3,CCc1nc2nc(Cl)c(-c3c(F)cc(F)cc3F)c(NCCC(F)(F)F)n2n1 [compound 6],3.18
4,CC(Nc1c(-c2c(F)cc(F)cc2F)c(Cl)nc2nc(C(C)(C)C)nn12)C(F)(F)F (centres unmarked) [compound 9],4.24
5,C=C(C)CN(CC)c1c(-c2c(F)cc(F)cc2F)c(Cl)nc2nc(C(F)(F)F)nn12 [compound 10],4.73
6,CC(C)Nc1c(-c2c(F)cc(F)cc2F)c(Cl)nc2nc(C(F)(F)F)nn12 [compound 11],3.8
7,Cc1nc2nc(Cl)c(-c3c(F)cc(F)cc3F)c(NC(C)C(F)(F)F)n2n1 (centres unmarked) [compound 12],3.01
8,Cc1nc2nc(Cl)c(-c3c(F)cc(F)cc3F)c(NCC(F)(F)F)n2n1 [compound 13],2.69
9,C=C(C)CN(CC)c1c(-c2c(F)cc(F)cc2F)c(Cl)nc2nc(C)nn12 [compound 14],3.83
10,C=C(C)CN(CC)c1c(-c2c(F)cc(F)cc2F)c(Cl)nc2nc(CC)nn12 [compound 15],4.34
11,C=C(C)CNc1c(-c2c(F)cc(F)cc2F)c(Cl)nc2nc(C)nn12 [compound 16],2.76
12,CC(C)Nc1c(-c2ccccc2Cl)c(Cl)nc2nc(C3CC3)nn12 [compound 17],3.39
13,Cc1nc2nc(Cl)c(-c3c(F)cc(F)cc3F)c(NCC#N)n2n1 [compound 18],2.02
14,C=C(C)CNc1c(-c2c(F)cc(F)cc2F)c(Cl)nc2nc(CC)nn12 [compound 21],3.15
15,C=C(C)CNc1c(-c2c(F)cc(F)cc2F)c(Cl)nc2nc(C(F)(F)F)nn12 [compound 22],3.82
16,CCc1nc2nc(Cl)c(-c3c(F)cc(F)cc3F)c(NCC#N)n2n1 [compound 23],2.27
17,N#CCNc1c(-c2c(F)cc(F)cc2F)c(Cl)nc2nc(C(F)(F)F)nn12 [compound 24],2.91
18,CC(Nc1c(-c2c(F)cc(F)cc2F)c(Br)nc2nc(C(F)(F)F)nn12)C(F)(F)F (centres unmarked) [compound 25],3.99
19,Cc1nc2nc(Cl)c(-c3c(F)cc(F)cc3F)c(NC(C)C)n2n1 [compound 26],2.71
20,Cc1nc2nc(Cl)c(-c3c(F)cc(F)cc3F)c(NNC(C)C)n2n1 [compound 28],2.7
21,CCN(CCOC)c1c(-c2c(F)cc(F)cc2F)c(Cl)nc2nc(C)nn12 [compound 29],2.93
22,CCc1nc2nc(Cl)c(-c3c(F)cc(F)cc3F)c(N(CC)CCOC)n2n1 [compound 30],3.37
23,CCN(CCOC)c1c(-c2c(F)cc(F)cc2F)c(Cl)nc2nc(C(F)(F)F)nn12 [compound 31],4.04
24,Fc1cc(F)c(-c2c(Cl)nc3nc(C(F)(F)F)nn3c2NC2CCCC2)c(F)c1 [compound 32],4.25
25,CCN(CC)c1c(-c2c(F)cc(F)cc2F)c(Cl)nc2nc(C(F)(F)F)nn12 [compound 33],4.25
26,Fc1cc(F)c(-c2c(Cl)nc3nc(C(F)(F)F)nn3c2N2CCOCC2)c(F)c1 [compound 34],3.22
27,Fc1cc(F)c(-c2c(Cl)nc3nc(C(F)(F)F)nn3c2NC2CC2)c(F)c1 [compound 35],3.53
28,CN(C)c1c(-c2ccccc2Cl)c(Cl)nc2nc(C3CC3)nn12 [compound 36],3.13

# Continued, values first:
row,logP,Structure (SMILES)
1,4.25,CC(C)C(C)Nc1c(-c2ccc(F)cc2Cl)c(Cl)nc2nc(C3CC3)nn12 (racemic) [compound 586]
2,4.25,CC(C)C(C)Nc1c(-c2ccc(F)cc2Cl)c(Cl)nc2nc(C3CC3)nn12 (racemic) [compound 587]
3,3.19,Cc1nc2nc(Cl)c(-c3ccc(F)cc3Cl)c(NC(C)C(F)(F)F)n2n1 (racemic) [compound 640]
4,3.73,CC(Nc1c(-c2ccc(F)cc2Cl)c(Cl)nc2nc(C3CC3)nn12)C(F)(F)F (racemic) [compound 747]
5,3.77,CC(Nc1c(-c2ccc(F)cc2Cl)c(Cl)nc2nc(C3CC3)nn12)C(F)(F)F (racemic) [compound 748]
6,4.23,CC(C)C(C)Nc1c(-c2ccc(F)cc2Cl)c(Cl)nc2nc(C3CC3)nn12 (racemic) [compound 775]
7,3.2,"Cc1nc2nc(Cl)c(-c3ccc(F)cc3Cl)c(N[C@@H](C)C(F)(F)F)n2n1 (single isomer, unassigned) [compound 641]"
8,3.17,"Cc1nc2nc(Cl)c(-c3ccc(F)cc3Cl)c(N[C@@H](C)C(F)(F)F)n2n1 (single isomer, unassigned) [compound 642]"
9,4.12,"CC(Nc1c(-c2ccc(Cl)cc2Cl)c(Cl)nc2nc(C3CC3)nn12)C(F)(F)F (single isomer, unassigned) [compound 710]"
10,4.19,"CC(Nc1c(-c2ccc(Cl)cc2Cl)c(Cl)nc2nc(C3CC3)nn12)C(F)(F)F (single isomer, unassigned) [compound 711]"
11,4.72,"CC(C)C(C)Nc1c(-c2ccc(Cl)cc2Cl)c(Cl)nc2nc(C3CC3)nn12 (single isomer, unassigned) [compound 756]"
12,4.72,"CC(C)C(C)Nc1c(-c2ccc(Cl)cc2Cl)c(Cl)nc2nc(C3CC3)nn12 (single isomer, unassigned) [compound 757]"
13,4.72,"CC(C)C(C)Nc1c(-c2ccc(Cl)cc2Cl)c(Cl)nc2nc(C3CC3)nn12 (single isomer, unassigned) [compound 758]"
14,4.72,"CC(C)C(C)Nc1c(-c2ccc(Cl)cc2Cl)c(Cl)nc2nc(C3CC3)nn12 (single isomer, unassigned) [compound 759]"
15,3.73,"CC(Nc1c(-c2ccc(F)cc2Cl)c(Cl)nc2nc(C3CC3)nn12)C(F)(F)F (single isomer, unassigned) [compound 767]"
16,3.77,"CC(Nc1c(-c2ccc(F)cc2Cl)c(Cl)nc2nc(C3CC3)nn12)C(F)(F)F (single isomer, unassigned) [compound 768]"
17,3.05,CCc1nc2nc(Cl)c(-c3c(F)cc(F)cc3F)c(NNC(C)C)n2n1 [compound 49]
18,3,Cc1nc2nc(Cl)c(-c3c(F)cc(F)cc3F)c(N3CC(C)OC(C)C3)n2n1 (centres unmarked) [compound 58]
19,2.86,Cc1nc2nc(Cl)c(-c3c(F)cc(F)cc3F)c(N3CCCC3)n2n1 [compound 59]

row,logP,Structure (SMILES)
1,3.43,Cc1nc2nc(Cl)c(-c3c(F)cc(F)cc3F)c(N3CCCCC3)n2n1 [compound 60]
2,2.75,CCCNc1c(-c2c(F)cc(F)cc2F)c(Cl)nc2nc(C)nn12 [compound 61]
3,3.23,Cc1nc2nc(Cl)c(-c3c(F)cc(F)cc3F)c(NC3CCCC3)n2n1 [compound 62]
4,3.23,CCN(CC)c1c(-c2c(F)cc(F)cc2F)c(Cl)nc2nc(C)nn12 [compound 63]
5,2.34,COCCNc1c(-c2c(F)cc(F)cc2F)c(Cl)nc2nc(C)nn12 [compound 64]
6,2.51,Cc1nc2nc(Cl)c(-c3c(F)cc(F)cc3F)c(NC3CC3)n2n1 [compound 65]
7,3.09,Cc1nc2nc(Cl)c(-c3c(F)cc(F)cc3F)c(N3CCSCC3)n2n1 [compound 66]
8,3.6,Cc1nc2nc(Cl)c(-c3c(F)cc(F)cc3F)c(N3CCC(C(F)(F)F)CC3)n2n1 [compound 67]
9,2.86,Cc1nc2nc(Cl)c(-c3c(F)cc(F)cc3F)c(NCC3CC3)n2n1 [compound 68]
10,3.04,Cc1nc2nc(Cl)c(-c3c(F)cc(F)cc3F)c(NC(C)C(F)(F)F)n2n1 (centres unmarked) [compound 69]
11,2.85,Cc1nc2nc(Cl)c(-c3c(F)cc(F)cc3F)c(NCCC(F)(F)F)n2n1 [compound 70]
12,3.57,CCc1nc2nc(Cl)c(-c3c(F)cc(F)cc3F)c(N3CC(C)OC(C)C3)n2n1 (centres unmarked) [compound 71]
13,3.29,CCc1nc2nc(Cl)c(-c3c(F)cc(F)cc3F)c(N3CCCC3)n2n1 [compound 72]
14,3.94,CCc1nc2nc(Cl)c(-c3c(F)cc(F)cc3F)c(N3CCCCC3)n2n1 [compound 73]
15,3.14,CCCNc1c(-c2c(F)cc(F)cc2F)c(Cl)nc2nc(CC)nn12 [compound 74]
16,3.66,CCc1nc2nc(Cl)c(-c3c(F)cc(F)cc3F)c(NC3CCCC3)n2n1 [compound 75]
17,3.15,CCc1nc2nc(Cl)c(-c3c(F)cc(F)cc3F)c(NC(C)C)n2n1 [compound 76]
18,3.71,CCc1nc2nc(Cl)c(-c3c(F)cc(F)cc3F)c(N(CC)CC)n2n1 [compound 77]
19,2.68,CCc1nc2nc(Cl)c(-c3c(F)cc(F)cc3F)c(NCCOC)n2n1 [compound 78]
